The source made the active and inactive calls. Rule as the data show it, for most assays here: actives have a measured EC50 and inactives only a lower limit.
Legend:
[1] = Luminescence Cell-Based Dose Confirmation HTS to Identify Activators of 5'UTR Stem-Loop Driven Alpha-Synuclein mRNA Translation in H4 Neuroglioblastoma Cells. [Related pubchem assays: 1829 (Project Summary), 1814 (Primary HTS)]; format: functional
[2] = Luminescence Cell-Based Dose Response HTS to Identify Activators of Luciferase Translation or Activity in H4 […] Cells. [Related pubchem assays: 1829 (Project Summary), 1814 (Primary HTS)]; format: functional
[3] = molecular target: T1, Corticotropin-releasing factor receptor 2/Corticotropin-releasing factor-binding protein (Homo sapiens, UniProt P24387+Q13324); assay: activators of CRF receptor 2 with binding protein – uHTS hits, confirmation (AID 602473); format: functional; conditions: read-out: EC50_Mean
T1 sequence (Q13324 whole entry): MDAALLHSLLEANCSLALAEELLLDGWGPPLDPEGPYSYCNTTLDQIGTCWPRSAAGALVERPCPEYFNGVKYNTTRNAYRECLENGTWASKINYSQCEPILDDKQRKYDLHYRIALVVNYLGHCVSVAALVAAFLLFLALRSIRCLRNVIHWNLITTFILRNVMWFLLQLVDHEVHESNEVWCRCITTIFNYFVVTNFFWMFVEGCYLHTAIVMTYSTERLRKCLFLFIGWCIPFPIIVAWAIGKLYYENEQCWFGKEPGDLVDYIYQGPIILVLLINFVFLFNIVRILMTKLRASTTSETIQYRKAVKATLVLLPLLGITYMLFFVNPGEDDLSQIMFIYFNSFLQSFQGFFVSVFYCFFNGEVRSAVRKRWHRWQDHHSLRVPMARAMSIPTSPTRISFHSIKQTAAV
T1 sequence (P24387 whole entry): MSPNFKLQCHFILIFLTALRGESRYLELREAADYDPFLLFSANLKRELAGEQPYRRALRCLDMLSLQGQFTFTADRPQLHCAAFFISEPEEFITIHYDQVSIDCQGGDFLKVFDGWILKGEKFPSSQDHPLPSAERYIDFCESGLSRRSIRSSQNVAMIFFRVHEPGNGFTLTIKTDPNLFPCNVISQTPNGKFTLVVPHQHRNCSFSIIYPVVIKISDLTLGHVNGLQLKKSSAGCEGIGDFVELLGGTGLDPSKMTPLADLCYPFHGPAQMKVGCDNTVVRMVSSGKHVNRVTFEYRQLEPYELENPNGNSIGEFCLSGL

[4] = molecular target: T1, Corticotropin-releasing factor receptor 2/Corticotropin-releasing factor-binding protein; assay: Dose Response confirmation of uHTS hits for small molecule antagonists of the CRF-binding protein and CRF-R2 receptor complex.; format: functional; conditions: read-out: IC50_Mean
[5] = tested on: H4; assay: Luminescence Cell-Based Dose Response HTS to Identify Activators of 5'UTR Stem-Loop Driven Prion Protein mRNA Translation in H4 Neuroglioblastoma Cells. [Related pubchem assays: 1829 (Project Summary), 1814 (Primary HTS)]; format: functional; conditions: Homo sapiens
[6] = non-specific 3'UTR reporter inhibition in Clone20-Shn3RL – cell-based, Renilla luciferase, cherry-picked, counter-screen for Shn3 inhibitor project, dose response (AID 624133); format: functional
[7] = reduction of Shn3 3'UTR-driven luciferase in osteoblasts – cell-based, Clone20 osteoblasts, firefly luciferase, cherry-picked, dose response (AID 624132); format: functional;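 also: firefly luciferase luminescence from reporter carrying the Shn3 3'UTR in osteoblasts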
[8] = loss of viability in HepG2 cells – cell-based, CellTiter-Glo, cherry-picked, cytotoxicity control for Shn3 inhibitor project, dose response (AID 624134); format: functional
[9] = NIH3T3 cell viability loss – ATP luminescence, mouse fibroblasts, counter-screen, dose response (AID 2010); format: functional, cell-based;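 also: cells exposed to compound for about 90 hours before reading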
[10] = luciferase reporter signal suppression in cells – H4 neuroglioma cells, luminescence, dose response (AID 1990); format: functional, cell-based
[11] = Trypanosoma cruzi growth suppression in host cells – NIH3T3 host cells, beta-gal luminescence, confirmation (AID 2044); format: functional, cell-based;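 also: intracellular parasites grown in NIH/3T3 mouse fibroblasts as host cells; luminescent beta-galactosidase reporter signal from transgenic T. cruzi replicating inside host cells; inhibitors lower the luminescence signal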
[12] = Luminescence Cell-Based Dose Response HTS to Identify Inhibitors of 5'UTR Stem-Loop Driven Prion Protein mRNA Translation in H4 Neuroglioblastoma Cells. [Related pubchem assays: 1827 (Project Summary), 1813 (Primary HTS)]; format: functional
[13] = alpha-synuclein stem-loop luciferase translation blockers – H4 neuroglioma cells, luminescence, confirmation (AID 1988); format: functional, cell-based
[14] = molecular target: T2, Protein RecA (Mycobacterium tuberculosis, UniProt P9WHJ3); assay: Fluorescence Cell-Free Homogeneous Dose Retest to Identify Inhibitors of RecA-Intein Splicing Activity. [Related pubchem assays (depositor defined):AID2097, AID2223, AID489010, AID492950]; format: functional
T2 sequence (P9WHJ3 whole entry): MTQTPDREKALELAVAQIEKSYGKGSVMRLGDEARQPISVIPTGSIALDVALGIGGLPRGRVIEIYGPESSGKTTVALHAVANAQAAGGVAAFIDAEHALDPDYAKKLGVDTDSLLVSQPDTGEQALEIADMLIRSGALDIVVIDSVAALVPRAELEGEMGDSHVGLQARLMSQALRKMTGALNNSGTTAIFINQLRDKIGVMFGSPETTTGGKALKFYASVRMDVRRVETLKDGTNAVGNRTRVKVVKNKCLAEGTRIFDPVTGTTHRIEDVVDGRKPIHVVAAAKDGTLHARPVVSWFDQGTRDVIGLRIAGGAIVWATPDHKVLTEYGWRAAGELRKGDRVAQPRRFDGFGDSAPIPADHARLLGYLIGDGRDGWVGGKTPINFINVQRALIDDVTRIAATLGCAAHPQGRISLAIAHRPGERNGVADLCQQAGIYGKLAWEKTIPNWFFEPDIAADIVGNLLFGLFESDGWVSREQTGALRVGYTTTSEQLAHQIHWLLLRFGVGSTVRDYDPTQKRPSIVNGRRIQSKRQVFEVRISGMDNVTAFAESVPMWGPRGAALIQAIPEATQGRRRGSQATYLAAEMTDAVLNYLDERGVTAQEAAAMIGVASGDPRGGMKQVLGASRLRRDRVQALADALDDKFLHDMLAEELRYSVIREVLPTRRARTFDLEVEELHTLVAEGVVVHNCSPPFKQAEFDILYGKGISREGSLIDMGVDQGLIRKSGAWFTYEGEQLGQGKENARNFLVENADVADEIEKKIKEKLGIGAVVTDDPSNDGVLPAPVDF

[15] = molecular target: T3, Replicative DNA helicase DnaB (Mycobacterium tuberculosis, UniProt P9WMR3); assay: DnaB intein splicing inhibitors, dose response, biochemical, cell-free fluorescence (AID 449749); format: functional
T3 sequence (P9WMR3 whole entry): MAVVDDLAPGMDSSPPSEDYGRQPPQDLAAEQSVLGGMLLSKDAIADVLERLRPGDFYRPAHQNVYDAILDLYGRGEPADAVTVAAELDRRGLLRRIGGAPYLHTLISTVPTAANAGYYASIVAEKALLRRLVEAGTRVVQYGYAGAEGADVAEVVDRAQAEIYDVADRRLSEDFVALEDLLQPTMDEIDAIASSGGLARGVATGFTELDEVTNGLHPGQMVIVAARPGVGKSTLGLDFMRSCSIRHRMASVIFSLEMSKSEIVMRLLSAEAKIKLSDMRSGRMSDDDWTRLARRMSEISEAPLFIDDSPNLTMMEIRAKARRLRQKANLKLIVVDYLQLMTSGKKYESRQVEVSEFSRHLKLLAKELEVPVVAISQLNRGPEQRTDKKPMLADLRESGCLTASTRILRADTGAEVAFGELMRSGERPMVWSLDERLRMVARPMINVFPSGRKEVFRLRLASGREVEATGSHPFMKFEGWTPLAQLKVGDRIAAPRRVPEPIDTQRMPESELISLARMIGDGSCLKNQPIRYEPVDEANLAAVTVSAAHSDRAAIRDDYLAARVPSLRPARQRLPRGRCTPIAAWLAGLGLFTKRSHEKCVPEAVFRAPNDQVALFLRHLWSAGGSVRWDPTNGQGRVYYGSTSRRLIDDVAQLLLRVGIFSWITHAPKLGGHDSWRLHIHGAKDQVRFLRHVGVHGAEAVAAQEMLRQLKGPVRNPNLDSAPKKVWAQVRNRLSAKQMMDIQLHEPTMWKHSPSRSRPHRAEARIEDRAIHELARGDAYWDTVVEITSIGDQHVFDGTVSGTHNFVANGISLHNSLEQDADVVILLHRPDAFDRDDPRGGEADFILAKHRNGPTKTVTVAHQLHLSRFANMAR

Row | Compound | EC50 [1] | EC50 [2] | EC50 [5] | also measured
1 | Cc1c(C(=O)NC(=S)NCC(C)C)oc2ccccc12 | 27.2 µM (active) | 63.2 µM (active) |  | 
2 | COCCn1c(SCC(=O)c2ccc3c(c2)OCCO3)nnc1-c1ccco1 |  |  |  | EC50 [3]: > 53 µM (inactive); IC50 [4]: > 47.1 µM (inactive)
3 | CC1CCCCN1C(=O)CSc1nc2ccsc2c(=O)n1Cc1ccccn1 (stereo unspecified) | 46.3 µM (active) | 5.86 µM (active) | 9.84 µM (active) | 
4 | CCc1c(C)nc2ncnn2c1Nc1ccc(C(C)=O)cc1 | 34.4 µM (active) | 92 µM (active) | 57.4 µM (active) | 
5 | COc1ccc(OC)c(C(=O)Cn2nnc(-c3ccc(N4CCOCC4)cc3)n2)c1 | > 120 µM (not active) | > 120 µM (not active) | > 120 µM (not active) | 
6 | C[C@H]1CN=C(N(C)C)N1CC1CCC(C(C)(C)C)CC1 (stereo partly specified) |  |  |  | AC50 [6]: 20.3 µM (active); AC50 [7]: 2.27 µM (active); AC50 [8]: 41.5 µM (active)
7 | CC(C)c1ccc(NCCC(=O)c2cccs2)cc1 | 4.14 µM (active) | 33.1 µM (active) | 61.8 µM (active) | 
8 | Brc1ccc2c(c1)OCCOCCOc1cc(Br)ccc1OCCOCCOCCO2 |  |  |  | EC50 [9]: > 60 µM (not active); EC50 [10]: 14.1 µM (active); EC50 [11]: 1.04 µM (active); EC50 [12]: 103 µM (active); EC50 [13]: > 120 µM (not active)
9 | COc1ccc(NC(=O)CSc2nnc(N)s2)c([N+](=O)[O-])c1 |  |  |  | EC50 [3]: > 53 µM (inactive); IC50 [4]: > 47.1 µM (inactive)
10 | O=C1CCCC/C1=C/Nc1ccc2c(c1)OCO2 | 8.5 µM (active) | 7.34 µM (active) | > 120 µM (not active) | 
11 | Cc1ccc(C(=O)NC(=S)NCC2CCCO2)cc1Br (stereo unspecified) | 11 µM (active) | 21 µM (active) | 45.5 µM (active) | 
12 | Cc1ccc(NC(=O)c2cc(NC(=O)/C=C\C(=O)O)ccc2N2CCCCC2)cc1 |  |  |  | EC50 [3]: > 53 µM (inactive); IC50 [4]: > 47.1 µM (inactive); EC50 [14]: 9.32 µM (active); AC50 [15]: 14.4 µM (active)
13 | CCOC(=O)N1CCN(C(=O)CCNS(=O)(=O)c2ccc3c(c2)c(=O)n(C)c(=O)n3C)CC1 | > 120 µM (not active) | > 120 µM (not active) | > 120 µM (not active) | 
14 | CCN1CCN(C(=O)C2=CC(c3ccc(OC)cc3)=NS(=O)(=O)N2C)CC1 |  |  |  | EC50 [3]: > 53 µM (inactive); IC50 [4]: > 47.1 µM (inactive)
